# Assay results: patent publication US12239686B2, “Immune checkpoint inhibitor combinations” (LYTIX BIOPHARMA AS, priority 2014, dated 2025)
# Non-standard residues stand in square brackets, D forms with d. Residues, ends and D or L forms follow the SMILES beside them. No end group written: not given here. Bip = N[C@@H](Cc1ccc(-c2ccccc2)cc1)C(=O)O; dBip = N[C@H](Cc1ccc(-c2ccccc2)cc1)C(=O)O; Dip = N[C@H](C(=O)O)C(c1ccccc1)c1ccccc1
# Assays:
# Format in all cases: cell-based, human
# MCF-7/mdr = MCF-7/mdr vs sensitive MCF-7 (doxorubicin resistance)
# Protocol: (§1) Tumor cells were grown as adherent monolayers or as suspensions at 37° C. in a humidified atmosphere (5% CO2, 95% air). The culture medium was RPMI 1640 containing 2 mM L-glutamine (Lonza, Belgium) and supplemented with 10% fetal bovine serum (FBS, Lonza). For experimental use, the adherent cells were detached from the culture flask by a 5-minute treatment with trypsin-versene (Lonza), diluted in Hanks' medium without calcium or magnesium (Lonza) and neutralized by addition of complete culture medium. Cells were counted in a hemocytometer and their viability was assessed by 0.25% trypan blue exclusion.
# (§2) Tumor cells were plated in 96-well flat-bottom microtitration plates (Nunc, Dutscher, Brumath, France) and incubated at 37° C. for 24 hours before treatment in 190 μl of drug-free culture medium supplemented or not with 10% FBS for adherent or suspension growing cell lines, respectively.
# (§3) The adherent cell lines were washed once with 200 μl FBS-free culture medium before treatment. Tumor cells were incubated for 4 hours with 10 concentrations of compounds in ¼ dilution step with a top dose of 400 μM (range 4×10^−4 to 4×10^−10 M), with 1% (final concentration) Triton X-100 as positive control and FBS-free culture medium as negative control. The cells (190 μl) were incubated in a 200 μl final volume of FBS-free culture medium containing test substances at 37° C. under 5% CO2.
# (§4) Three independent experiments were performed, each concentration being tested in quadruplicate. Control cells were treated with vehicle alone. At the end of treatments, the cytotoxic activity was evaluated by a MTS assay (see § 3.3).
# (§5) Like MTT, MTS is bioreduced by cells into a formazan product that is directly soluble in culture medium without processing, unlike MTT.
# (§6) At the end of the cells treatment, 40 μl of a 0.22 μm filtered freshly combined solution of MTS (20 ml at 2 mg/ml, Ref G1111, Batch 235897, Exp 03/2009, Promega, Charbonnières, France) and PMS (1 ml at 0.92 mg/ml, Ref P9625, Batch 065K0961, Sigma) in Dulbecco's Phosphate Buffered Saline (DPBS, Ref 17-513Q, Batch 6MB0152, Cambrex), were added in each well. Culture plates were incubated for 2 h at 37° C. Absorbency (OD) were measured at 490 nm in each well using VICTOR^3TM 1420 multilabeled counter (Wallac, PerkinElmer, Courtaboeuf, France).
# (§7) [formula] • The OD values are the mean of 4 experimental measurements. • IC50: drug concentration to obtain a 50% inhibition of cell proliferation.
# (§8) The dose-response curves were plotted using XLFit 3 (IDBS, United Kingdom). The IC50 determination values were calculated using the XLFit 3 software from semi-log curves. Individual IC50 determination values as well as mean and SD values were generated.
# (§9) Resistance index was calculated using the following formula: […]
# (§10) Resistance index was calculated for each compound for each couple of sensitive and resistant cell lines. Individual resistance index was calculated when IC50 values of both sensitive and corresponding resistant cell lines were determined within same experiment. In addition, resistance index was also calculated ratio of mean IC50 values obtained during three independent experiments.
# IGROV-1/CDDP = IGROV-1/CDDP vs IGROV-1 (cisplatin resistance)
# Protocol: as §1, §2, §3, §4, §5, §6, §7, §8, §9, §10
# HL-60/ADR = test: In vitro cytotoxic activity, MTS assay; resistance index; details: HL-60/ADR vs sensitive HL-60 (doxorubicin resistance)
# Protocol: as §1, §2, §3, §4, §5, §6, §7, §8, §9, §10
# CCRF-CEM/VLB = test: Resistance index from MTS cytotoxicity; details: CCRF-CEM/VLB vs CCRF-CEM
# Protocol: as §1, with “exclusion. […]” for “exclusion.”
# Three independent experiments were performed, each concentration being tested in quadruplicate. […] At the end of treatments, the cytotoxic activity was evaluated by a MTS assay (see § 3.3). […]
# At the end of the cells treatment, 40 μl of a 0.22 μm filtered freshly combined solution of MTS (20 ml at 2 mg/ml, Ref G1111, Batch 235897, Exp 03/2009, Promega, Charbonnières, France) and PMS (1 ml at 0.92 mg/ml, Ref P9625, Batch 065K0961, Sigma) in Dulbecco's Phosphate Buffered Saline (DPBS, Ref 17-513Q, Batch 6MB0152, Cambrex), were added in each well. […] Absorbency (OD) were measured at 490 nm in each well using VICTOR^3TM 1420 multilabeled counter (Wallac, PerkinElmer, Courtaboeuf, France). […]
# as §9
# A375 cells = test: Confocal microscopy, fluorescence-labeled peptide internalization; details: 1.5 and 3 μM
# Protocol: Fixed cells, fluorescence-labeled peptide-Subconfluential A375 cells were seeded at 8,000 cells/well as above, and transfected on the second day using the Lipofectamine LTX with Plus transfection reagents (Invitrogen) following the manufacturer's protocol. The mitochondria were labeled using the pDsRed2-Mito, and the nucleus was labeled using the GFP-Histon2B plasmid (Imaging Platform, University of Tromsø). A day after transfection, cells were washed twice with serum-free RPMI, and treated at different concentration and incubation periods with LTX-315 Pacific Blue or LTX-328 Pacific Blue.
# Control cells were treated with unlabeled LTX-315 and also with serum-free RPMI only. After incubation, cells were fixed with 4% paraformaldehyde in PBS, and the wells were covered with Prolong Gold antifade (Invitrogen). Cells were further analyzed by use of a Leica TCS SP5 confocal microscope, with a […] objective. Pacific Blue, GFP and Ds Red were excited using UV, with 488 and 561 lasers, and fluorescence channels were sequentially detected using the following band passes: UV: 420-480 nm (with attenuation), 488: 501-550 nm and 561: 576-676 nm.
Compound,Resistance index (RI) (MCF-7/mdr),Resistance index (RI) (IGROV-1/CDDP),Resistance index (RI) (HL-60/ADR),Resistance index (RI) (CCRF-CEM/VLB),internalization of Pacific Blue-labeled peptide (A375 cells)
"NCCCC[C@H](NC(=O)[C@H](Cc1c[nH]c2ccccc12)NC(=O)[C@H](CCCCN)NC(=O)[C@H](CCCCN)NC(=O)[C@@H](NC(=O)[C@H](Cc1c[nH]c2ccccc12)NC(=O)[C@H](CCCCN)NC(=O)[C@H](CCCCN)NC(=O)[C@@H](N)Cc1c[nH]c2ccccc12)C(c1ccccc1)c1ccccc1)C(N)=O [LTX-302, W-K-K-W-Dip-K-K-W-K-NH2] (H-WKKW[Dip]KKWK-NH2; N-terminus assumed)",1.23,0.33,1.31,,
"NCCCC[C@H](NC(=O)[C@H](Cc1c[nH]c2ccccc12)NC(=O)[C@H](Cc1c[nH]c2ccccc12)NC(=O)[C@H](CCCCN)NC(=O)[C@H](CCCCN)NC(=O)[C@H](Cc1c[nH]c2ccccc12)NC(=O)[C@H](Cc1ccc(-c2ccccc2)cc1)NC(=O)[C@H](CCCCN)NC(=O)[C@@H](N)CCCCN)C(N)=O [LTX-313, K-K-Bip-W-K-K-W-W-K-NH2] (H-KK[Bip]WKKWWK-NH2; N-terminus assumed)",1.24,0.49,1.16,0.76,
"N=C(N)NCCC[C@H](NC(=O)[C@H](Cc1c[nH]c2ccccc12)NC(=O)[C@H](Cc1c[nH]c2ccccc12)NC(=O)[C@H](CCCNC(=N)N)NC(=O)[C@H](CCCNC(=N)N)NC(=O)[C@@H](NC(=O)[C@H](Cc1c[nH]c2ccccc12)NC(=O)[C@H](CCCNC(=N)N)NC(=O)[C@@H](N)CCCNC(=N)N)C(c1ccccc1)c1ccccc1)C(N)=O [LTX-320, R-R-W-Dip-R-R-W-W-R-NH2] (H-RRW[Dip]RRWWR-NH2; N-terminus assumed)",1.19,0.49,0.90,,
"NCCCC[C@@H](N)C(=O)N[C@H](CCCCN)C(=O)N[C@H](Cc1ccc(-c2ccccc2)cc1)C(=O)N[C@H](Cc1c[nH]c2ccccc12)C(=O)N[C@H](CCCCN)C(=O)N[C@H](CCCCN)C(=O)N[C@H](Cc1c[nH]c2ccccc12)C(=O)N[C@H](Cc1c[nH]c2ccccc12)C(=O)N[C@H](CCCCN)C(N)=O [LTX-329, k-k-bip-w-k-k-w-w-k-NH2] (H-[dK][dK][dBip][dW][dK][dK][dW][dW][dK]-NH2; N-terminus assumed)",1.07,0.46,0.80,0.76,
"KAQ[Dip]QKQAW-NH2 [LTX-328, reference compound]",,,,,did not demonstrate any internalization
